Values of other authors, collected in US7074797B2, “Pyrazolopyrimidines as CRF receptor antagonists” (Neurocrine Biosciences, Inc., priority 1996, dated 2006).
No end group written: not given here.

Columns and labels:
[1] = system: Rats; conditions: ICV, animals previously familiarized with the apparatus, fifteen minute session
[2] = system: Rats; conditions: central administration

CRF: corticotropin-releasing factor, a 41-amino acid peptide (SEEPPISLDLTFHLLREVLEMARAEQLAQQAHSNRKLMEII-NH2; ends and bridges not checked; UniProt P06850 154-194, looked up)
latency to emerge from the small chamber [1]: increases
mean time spent in the chamber [1]: increases
exploration in the elevated plus maze [2]: suppresses exploration
